Test results from ChEMBL document CHEMBL4507310, “Data for DCP probe A-1211212” (2021).

Key:
[1] = target: T1, Muscarinic acetylcholine receptor M5 (Homo sapiens) (UniProt P08912); test: M5 (h) Eurofins-Cerep binding assay; parameters: ligand concentration 0.3 nM; conditions: filed as antagonist, Compound concentration 10.0 uM
T1 sequence (whole entry): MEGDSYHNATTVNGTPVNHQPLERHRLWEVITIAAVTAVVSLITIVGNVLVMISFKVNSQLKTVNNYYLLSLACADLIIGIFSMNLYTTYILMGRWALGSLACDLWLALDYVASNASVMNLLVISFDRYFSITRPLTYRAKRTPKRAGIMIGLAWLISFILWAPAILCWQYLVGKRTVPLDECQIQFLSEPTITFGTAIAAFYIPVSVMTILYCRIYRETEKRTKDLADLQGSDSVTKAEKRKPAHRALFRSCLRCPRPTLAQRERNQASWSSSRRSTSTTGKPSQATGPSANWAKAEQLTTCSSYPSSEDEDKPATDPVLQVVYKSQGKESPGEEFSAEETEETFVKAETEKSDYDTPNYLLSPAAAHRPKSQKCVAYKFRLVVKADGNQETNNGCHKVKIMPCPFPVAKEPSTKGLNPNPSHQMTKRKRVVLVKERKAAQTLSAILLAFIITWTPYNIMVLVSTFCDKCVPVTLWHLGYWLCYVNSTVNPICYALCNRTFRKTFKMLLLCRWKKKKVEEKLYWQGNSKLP

[2] = target: T2, Muscarinic acetylcholine receptor M1 (Homo sapiens) (UniProt P11229); test: M1 (h) Eurofins-Cerep binding assay; parameters: ligand concentration 2 nM; conditions: filed as antagonist, Compound concentration 10.0 uM
T2 sequence (whole entry): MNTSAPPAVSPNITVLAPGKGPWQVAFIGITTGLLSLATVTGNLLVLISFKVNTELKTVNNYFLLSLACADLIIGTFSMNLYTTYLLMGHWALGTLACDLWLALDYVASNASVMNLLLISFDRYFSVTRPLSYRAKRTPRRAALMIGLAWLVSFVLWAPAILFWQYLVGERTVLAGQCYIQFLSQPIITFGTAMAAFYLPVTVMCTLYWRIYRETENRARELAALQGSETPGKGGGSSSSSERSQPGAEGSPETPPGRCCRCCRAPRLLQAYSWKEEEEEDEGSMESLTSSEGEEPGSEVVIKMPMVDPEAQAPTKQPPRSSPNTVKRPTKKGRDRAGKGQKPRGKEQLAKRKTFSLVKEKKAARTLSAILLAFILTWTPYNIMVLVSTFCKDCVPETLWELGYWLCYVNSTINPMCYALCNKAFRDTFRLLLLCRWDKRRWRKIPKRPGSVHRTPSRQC

[3] = target: Serine/threonine-protein kinase tousled-like 2 (Homo sapiens) (UniProt Q86UE8); conditions: Compound concentration 1000.0 nM
[4] = target: GABA-A receptor; anion channel (Rattus norvegicus) (UniProt O09028+P15431+P18506+P18508+P19969+P20236+P23574+P23576+P28471+P28473+P30191+P62813+P63079+P63138+Q91ZM7+Q9ES14); conditions: Compound concentration 10.0 uM
[5] = target: Dual specificity mitogen-activated protein kinase kinase 3 (Homo sapiens) (UniProt P46734); conditions: Compound concentration 1000.0 nM
[6] = target: Death-associated protein kinase 1 (Homo sapiens) (UniProt P53355); conditions: Compound concentration 1000.0 nM
[7] = target: Platelet-derived growth factor receptor beta (Homo sapiens) (UniProt P09619); conditions: Compound concentration 1000.0 nM
[8] = target: Cyclin-dependent kinase-like 3 (Homo sapiens) (UniProt Q8IVW4); conditions: Compound concentration 1000.0 nM
[9] = target: Cyclin-dependent kinase 15 (Homo sapiens) (UniProt Q96Q40); conditions: Compound concentration 1000.0 nM
[10] = target: Protein kinase C iota type (Homo sapiens) (UniProt P41743); conditions: Compound concentration 1000.0 nM
[11] = target: Serine/threonine-protein kinase 25 (Homo sapiens) (UniProt O00506); conditions: Compound concentration 1000.0 nM
[12] = target: Dual specificity protein kinase TTK (Homo sapiens) (UniProt P33981); conditions: Compound concentration 1000.0 nM
[13] = target: Calcium/calmodulin-dependent protein kinase kinase 1 (Homo sapiens) (UniProt Q8N5S9); conditions: Compound concentration 1000.0 nM
[14] = target: Serine/threonine-protein kinase PAK 6 (Homo sapiens) (UniProt Q9NQU5); conditions: Compound concentration 1000.0 nM
[15] = target: Mitogen-activated protein kinase 4 (Homo sapiens) (UniProt P31152); conditions: Compound concentration 1000.0 nM
[16] = test system: Tyrosine-protein kinase ABL1 (Homo sapiens), P00519 [Q252H]; conditions: Compound concentration 1000.0 nM
[17] = target: Casein kinase I isoform epsilon (Homo sapiens) (UniProt P49674); conditions: Compound concentration 1000.0 nM
[18] = test system: eIF-2-alpha kinase GCN2 (Homo sapiens), Q9P2K8 [S808G]; conditions: Compound concentration 1000.0 nM
[19] = target: G protein-coupled receptor kinase 4 (Homo sapiens) (UniProt P32298); conditions: Compound concentration 1000.0 nM
[20] = target: Translocator protein (Rattus norvegicus) (UniProt P16257); test: BZD (peripheral) Eurofins-Cerep binding assay; parameters: ligand concentration 0.2 nM; conditions: filed as antagonist, Compound concentration 10.0 uM
[21] = test system: Tyrosine-protein kinase ABL1 (Homo sapiens), P00519 [H396P]; conditions: Compound concentration 1000.0 nM
[22] = target: Cyclin-G-associated kinase (Homo sapiens) (UniProt O14976); conditions: Compound concentration 1000.0 nM
[23] = target: Cyclin-dependent kinase-like 1 (Homo sapiens) (UniProt Q00532); conditions: Compound concentration 1000.0 nM
[24] = test system: Tyrosine-protein kinase ABL1 (Homo sapiens), P00519 [T315I]; conditions: Compound concentration 1000.0 nM
[25] = target: Mu-type opioid receptor (Homo sapiens) (UniProt P35372); test: mu (MOP) (h) Eurofins-Cerep binding assay; parameters: ligand concentration 0.5 nM; conditions: filed as agonist, Compound concentration 10.0 uM
[26] = target: Insulin receptor-related protein (Homo sapiens) (UniProt P14616); conditions: Compound concentration 1000.0 nM
[27] = test system: Mast/stem cell growth factor receptor Kit (Homo sapiens), P10721 [V559D]; conditions: Compound concentration 1000.0 nM
[28] = target: Bone morphogenetic protein receptor type-1B (Homo sapiens) (UniProt O00238); conditions: Compound concentration 1000.0 nM
[29] = target: Proto-oncogene tyrosine-protein kinase ROS (Homo sapiens) (UniProt P08922); conditions: Compound concentration 1000.0 nM
[30] = target: Type-2 angiotensin II receptor (Homo sapiens) (UniProt P50052); test: AT2 (h) Eurofins-Cerep binding assay; parameters: ligand concentration 0.01 nM; conditions: filed as agonist, Compound concentration 10.0 uM
[31] = test system: Epidermal growth factor receptor (Homo sapiens), P00533 [G719C]; conditions: Compound concentration 1000.0 nM

Sequence of Translocator protein (Rattus norvegicus) (P16257 whole entry, looked up): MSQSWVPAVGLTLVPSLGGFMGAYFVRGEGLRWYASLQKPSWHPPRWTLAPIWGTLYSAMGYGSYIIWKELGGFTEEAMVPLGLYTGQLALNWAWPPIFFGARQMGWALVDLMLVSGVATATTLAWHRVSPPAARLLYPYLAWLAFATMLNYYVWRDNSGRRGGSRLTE
Sequence of Cyclin-dependent kinase-like 3 (Homo sapiens) (Q8IVW4 whole entry, looked up): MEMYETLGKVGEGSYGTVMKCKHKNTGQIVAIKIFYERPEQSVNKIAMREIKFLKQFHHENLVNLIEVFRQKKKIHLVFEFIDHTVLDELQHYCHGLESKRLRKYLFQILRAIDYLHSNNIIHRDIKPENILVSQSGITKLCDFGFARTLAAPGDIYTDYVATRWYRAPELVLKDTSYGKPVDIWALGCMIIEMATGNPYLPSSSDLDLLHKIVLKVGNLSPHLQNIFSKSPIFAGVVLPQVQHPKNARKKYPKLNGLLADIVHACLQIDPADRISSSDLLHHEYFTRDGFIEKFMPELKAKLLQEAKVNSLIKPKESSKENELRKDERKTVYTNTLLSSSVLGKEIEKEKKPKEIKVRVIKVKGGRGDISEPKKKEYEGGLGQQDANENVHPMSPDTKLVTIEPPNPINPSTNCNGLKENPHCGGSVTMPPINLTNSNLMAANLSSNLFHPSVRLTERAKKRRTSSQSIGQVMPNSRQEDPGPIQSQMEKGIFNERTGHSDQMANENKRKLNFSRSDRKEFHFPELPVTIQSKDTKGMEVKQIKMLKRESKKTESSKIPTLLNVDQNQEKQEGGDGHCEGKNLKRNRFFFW
Sequence of Death-associated protein kinase 1 (Homo sapiens) (P53355 whole entry, looked up): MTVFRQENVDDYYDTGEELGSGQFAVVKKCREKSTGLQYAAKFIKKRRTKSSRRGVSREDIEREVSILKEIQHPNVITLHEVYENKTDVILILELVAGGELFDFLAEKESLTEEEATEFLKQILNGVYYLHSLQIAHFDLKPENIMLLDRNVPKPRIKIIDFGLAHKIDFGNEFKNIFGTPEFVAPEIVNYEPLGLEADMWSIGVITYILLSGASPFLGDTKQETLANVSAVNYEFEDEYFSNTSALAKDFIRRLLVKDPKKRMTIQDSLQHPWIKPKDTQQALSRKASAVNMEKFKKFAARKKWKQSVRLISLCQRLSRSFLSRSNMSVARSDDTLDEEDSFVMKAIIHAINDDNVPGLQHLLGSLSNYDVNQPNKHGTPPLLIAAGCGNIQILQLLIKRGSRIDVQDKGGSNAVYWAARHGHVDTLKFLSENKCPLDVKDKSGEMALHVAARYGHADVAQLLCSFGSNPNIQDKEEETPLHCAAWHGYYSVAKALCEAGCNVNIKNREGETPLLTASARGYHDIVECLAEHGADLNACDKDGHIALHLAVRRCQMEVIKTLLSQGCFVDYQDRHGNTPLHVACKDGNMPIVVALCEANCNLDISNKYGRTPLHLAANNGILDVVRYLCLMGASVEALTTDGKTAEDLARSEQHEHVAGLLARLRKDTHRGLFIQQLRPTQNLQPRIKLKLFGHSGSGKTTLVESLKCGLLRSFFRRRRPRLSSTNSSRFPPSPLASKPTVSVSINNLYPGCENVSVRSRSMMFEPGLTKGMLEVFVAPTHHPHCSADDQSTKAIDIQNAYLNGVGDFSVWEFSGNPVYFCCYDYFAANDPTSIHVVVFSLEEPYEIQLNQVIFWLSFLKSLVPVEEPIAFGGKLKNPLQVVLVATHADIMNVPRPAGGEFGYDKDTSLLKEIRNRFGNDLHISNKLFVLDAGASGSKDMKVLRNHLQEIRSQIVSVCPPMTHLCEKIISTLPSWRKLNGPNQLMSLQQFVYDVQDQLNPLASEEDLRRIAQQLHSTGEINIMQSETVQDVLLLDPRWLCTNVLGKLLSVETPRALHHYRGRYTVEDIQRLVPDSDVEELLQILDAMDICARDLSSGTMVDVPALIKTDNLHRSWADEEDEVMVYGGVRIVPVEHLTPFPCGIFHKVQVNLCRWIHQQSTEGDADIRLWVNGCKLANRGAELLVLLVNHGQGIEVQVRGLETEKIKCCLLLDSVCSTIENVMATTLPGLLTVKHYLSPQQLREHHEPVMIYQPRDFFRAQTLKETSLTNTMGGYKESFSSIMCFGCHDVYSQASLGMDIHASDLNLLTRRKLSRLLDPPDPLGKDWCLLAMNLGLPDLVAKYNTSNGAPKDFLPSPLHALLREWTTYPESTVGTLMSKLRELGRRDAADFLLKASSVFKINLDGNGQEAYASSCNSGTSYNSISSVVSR
Sequence of Casein kinase I isoform epsilon (Homo sapiens) (P49674 whole entry, looked up, canonical isoform): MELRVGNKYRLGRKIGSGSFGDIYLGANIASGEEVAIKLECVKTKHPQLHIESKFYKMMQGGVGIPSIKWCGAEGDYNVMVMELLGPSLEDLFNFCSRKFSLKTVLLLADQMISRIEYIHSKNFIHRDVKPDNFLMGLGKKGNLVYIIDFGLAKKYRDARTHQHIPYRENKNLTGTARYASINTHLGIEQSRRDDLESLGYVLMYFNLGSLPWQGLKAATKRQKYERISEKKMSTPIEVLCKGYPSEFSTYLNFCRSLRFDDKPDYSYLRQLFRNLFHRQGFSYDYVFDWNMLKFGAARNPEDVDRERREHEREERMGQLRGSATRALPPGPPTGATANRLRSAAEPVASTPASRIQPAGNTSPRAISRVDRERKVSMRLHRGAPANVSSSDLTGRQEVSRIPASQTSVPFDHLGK
Sequence of Bone morphogenetic protein receptor type-1B (Homo sapiens) (O00238 whole entry): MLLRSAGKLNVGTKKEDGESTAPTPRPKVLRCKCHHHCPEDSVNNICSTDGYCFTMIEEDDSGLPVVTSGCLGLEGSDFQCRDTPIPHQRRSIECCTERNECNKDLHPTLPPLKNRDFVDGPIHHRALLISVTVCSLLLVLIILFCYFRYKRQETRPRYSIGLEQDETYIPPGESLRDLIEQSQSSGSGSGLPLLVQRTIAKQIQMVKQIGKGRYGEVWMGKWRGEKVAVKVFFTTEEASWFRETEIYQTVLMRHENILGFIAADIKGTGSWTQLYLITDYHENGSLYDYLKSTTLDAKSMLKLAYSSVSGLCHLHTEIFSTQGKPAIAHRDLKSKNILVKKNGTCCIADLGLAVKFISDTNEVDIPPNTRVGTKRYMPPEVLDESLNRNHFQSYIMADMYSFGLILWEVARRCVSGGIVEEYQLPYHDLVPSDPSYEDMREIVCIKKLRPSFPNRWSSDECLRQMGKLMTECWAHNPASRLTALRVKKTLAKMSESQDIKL
Sequence of Dual specificity protein kinase TTK (Homo sapiens) (P33981 whole entry): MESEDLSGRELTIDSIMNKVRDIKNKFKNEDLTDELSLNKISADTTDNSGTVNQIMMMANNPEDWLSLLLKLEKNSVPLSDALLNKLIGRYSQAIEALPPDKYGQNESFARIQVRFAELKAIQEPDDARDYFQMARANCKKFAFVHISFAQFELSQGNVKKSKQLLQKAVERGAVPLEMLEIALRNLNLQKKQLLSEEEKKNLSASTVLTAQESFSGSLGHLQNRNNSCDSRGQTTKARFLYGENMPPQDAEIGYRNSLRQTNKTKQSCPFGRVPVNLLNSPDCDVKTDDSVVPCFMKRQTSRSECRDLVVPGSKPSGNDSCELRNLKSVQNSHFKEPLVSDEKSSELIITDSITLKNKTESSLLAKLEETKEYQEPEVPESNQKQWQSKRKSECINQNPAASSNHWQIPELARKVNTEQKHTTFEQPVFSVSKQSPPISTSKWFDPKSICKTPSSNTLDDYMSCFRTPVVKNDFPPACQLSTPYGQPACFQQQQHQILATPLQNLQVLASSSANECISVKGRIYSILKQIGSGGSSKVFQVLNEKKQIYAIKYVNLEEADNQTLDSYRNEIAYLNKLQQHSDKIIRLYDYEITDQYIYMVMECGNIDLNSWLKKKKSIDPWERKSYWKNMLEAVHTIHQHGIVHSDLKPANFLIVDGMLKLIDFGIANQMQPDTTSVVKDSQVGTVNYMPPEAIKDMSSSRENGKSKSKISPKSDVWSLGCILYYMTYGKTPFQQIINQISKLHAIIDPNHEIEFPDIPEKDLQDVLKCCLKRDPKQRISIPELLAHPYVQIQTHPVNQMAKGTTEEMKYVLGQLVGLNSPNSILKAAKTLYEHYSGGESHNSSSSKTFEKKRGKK
Sequence of Serine/threonine-protein kinase tousled-like 2 (Homo sapiens) (Q86UE8 whole entry, looked up): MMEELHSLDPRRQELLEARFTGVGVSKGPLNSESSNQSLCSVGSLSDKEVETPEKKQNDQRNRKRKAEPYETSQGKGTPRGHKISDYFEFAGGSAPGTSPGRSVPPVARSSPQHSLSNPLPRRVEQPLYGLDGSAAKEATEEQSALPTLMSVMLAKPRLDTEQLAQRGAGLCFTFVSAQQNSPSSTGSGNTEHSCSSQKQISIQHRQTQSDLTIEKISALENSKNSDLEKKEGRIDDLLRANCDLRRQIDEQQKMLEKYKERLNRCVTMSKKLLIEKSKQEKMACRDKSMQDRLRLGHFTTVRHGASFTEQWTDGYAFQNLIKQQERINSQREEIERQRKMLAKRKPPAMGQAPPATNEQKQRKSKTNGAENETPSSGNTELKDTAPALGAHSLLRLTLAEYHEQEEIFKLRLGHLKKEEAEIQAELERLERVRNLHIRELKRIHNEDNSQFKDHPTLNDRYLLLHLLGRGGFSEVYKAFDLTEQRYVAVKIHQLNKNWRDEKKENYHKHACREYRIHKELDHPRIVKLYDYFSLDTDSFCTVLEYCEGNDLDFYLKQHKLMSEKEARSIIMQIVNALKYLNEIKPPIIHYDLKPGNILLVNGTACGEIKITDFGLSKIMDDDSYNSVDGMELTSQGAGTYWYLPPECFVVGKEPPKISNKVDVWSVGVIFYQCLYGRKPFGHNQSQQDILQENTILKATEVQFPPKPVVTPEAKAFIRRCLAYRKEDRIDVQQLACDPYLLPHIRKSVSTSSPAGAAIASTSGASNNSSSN

Row | SMILES | % Inhibition of Control Specific Binding (Mean n=2) [1] | % Inhibition of Control Specific Binding (Mean n=2) [2] | residual activity [3] | inhibition [4] | residual activity [5] | residual activity [6] | residual activity [7] | residual activity [8] | residual activity [9] | residual activity [10] | residual activity [11] | residual activity [12] | residual activity [13] | residual activity [14] | residual activity [15] | residual activity [16] | residual activity [17] | residual activity [18] | residual activity [19] | % Inhibition of Control Specific Binding (Mean n=2) [20] | other results
1 | CO[C@H]1CC[C@H](CNc2ccc(S(=O)(=O)NC(=O)c3ccc(N4CCN(CC5=C(c6ccc(Cl)cc6)CC(C)(C)CC5)CC4)cc3Oc3cnc4[nH]ccc4c3)cc2[N+](=O)[O-])CC1 [A-1211212] | 8.6% | -7.2% | 87% | 19% | 92% | 73% | 99% | 83% | 100% | 79% | 83% | 82% | 83% | 75% | 100% | 100% | 88% | 96% | 100% | 44.9% | residual activity [21]: 92%; residual activity [22]: 99%; residual activity [23]: 94%; residual activity [24]: 80%; % Inhibition of Control Specific Binding (Mean n=2) [25]: 12.9%; residual activity [26]: 100%; residual activity [27]: 99%; residual activity [28]: 92%; residual activity [29]: 72%; % Inhibition of Control Specific Binding (Mean n=2) [30]: 4.7%; residual activity [31]: 67%
2 | O=C(NS(=O)(=O)c1ccc(NCC2CCOCC2)c([N+](=O)[O-])c1)c1ccc(N2CCN(Cc3ccc(C(F)(F)F)cc3-c3ccc(Cl)cc3)CC2)cc1Oc1cnc2[nH]ccc2c1 [A-1210227] | -1.6% | -0.2% | 100% | 14.5% | 80% | 100% | 100% | 95% | 100% | 100% | 98% | 100% | 92% | 73% | 97% | 84% | 95% | 85% | 100% | 36% | residual activity [21]: 94%; residual activity [22]: 100%; residual activity [23]: 100%; residual activity [24]: 100%; % Inhibition of Control Specific Binding (Mean n=2) [25]: 2.8%; residual activity [26]: 98%; residual activity [27]: 100%; residual activity [28]: 89%; residual activity [29]: 87%; % Inhibition of Control Specific Binding (Mean n=2) [30]: 5.3%; residual activity [31]: 83%
